Measurements: patent US20250138031A1, “IN VITRO MEASUREMENT OF THE LYSIS OF A FIBRIN CLOT” (DIAGNOSTICA STAGO, priority 2021, published 2025)
“Also recorded” adds a separate entry of the source.

How the values were obtained:
[1] = system: lysis of the fibrin clot in hemophilia-A plasma; experiment: Coagulation-Lysis test in turbidimetry with intrinsic activators instead of FXIa; assay type: biochemical, human; conditions: all FVIII concentrations tested, 48 nM GEG, 290 nM silica, TF 0.5 pM
Procedure: The intrinsic activators in Stago reagents are ethylene glycol gallate at 23 mg/L (STA-Cephascreen) and silica at 20 g/L (STA-PTT analyzer).
As was done for the implementation of a viscoelastic method, turbidimetry tests were performed with a hemophilia-A patient from each group, overloaded with 0, 2, 20, 100% of Factor VIII (FVIII-Advate®). The coagulation reaction was initiated with ethylene glycol gallate (GEG) from 48 to 190 nM final test or with silica from 145 to 580 nM final test, without modifying the concentration of tissue factor which was kept at 0.5 pM final test for the two activators. These activators were added independently into the reagent under the same reference conditions as FXIa.
The aim is to determine the maximum difference in tolerance observed in parameters DOD t1, DOD t2, and TL, between FXIa and the intrinsic activators.

[2] = at 15 mg/kg; cited from earlier work
[3] = system: lysis of the fibrin clot in hemophilia-A plasma; experiment: Coagulation-Lysis test (turbidimetric, DOD t1 750 sec / t2 1400 sec) on hemophilia-A plasmas; assay type: biochemical, human
Procedure: Dynamic measurement of the formation and degradation of the fibrin clot is carried out on a set of samples. The test, called the “Coagulation-Lysis” test, is a turbidimetric, automated, encompassing test for measuring the formation and lysis of the fibrin clot. For the analysis, the invention takes advantage of only the “lysis” part of the fibrin clot formation and lysis curve. The test is performed by mixing the plasma sample, undiluted, with an intermediate reagent containing a very low concentration of tissue factor (TF), phospholipids (PPL), plasminogen activator (tPA), and activator of the intrinsic pathway, preferably factor XIa (FXIa). After incubating the mixture, the calcium reagent triggers the generation of thrombin and the formation of the fibrin clot which quickly begins to be degraded by the tPA (tissue plasminogen activator).
According to one embodiment, TF (tissue factor), PPL (phospholipids), FXIa, and tPA (tissue plasminogen activator) are mixed at the following concentrations: 0.5 pM, 4 μM, 100 PM and 0.13 μg/mL final test.
The undiluted plasma sample, preferably 200 μL, is mixed with the intermediate reagent, preferably 50 μL.
Next is a step of incubating the mixture at 37° C. then adding the calcium ion-based triggering reagent to the mixture (FIG. 1), preferably 50 μL in 102 mM final reagent (17 mM final test), to initiate the thrombin generation and fibrin clot formation (FIG. 1).
Then, the change in optical density is read (FIG. 1) dynamically (every 2 seconds) at a single wavelength between 350 and 800 nm, preferably at 540 nm and preferably for a duration of 1986 seconds (33 minutes).
In the context of this experimental section, the parameters or steps which were specifically used or carried out to obtain the presented results are as follows: • a. TF (tissue factor) and PPL (phospholipids) are mixed with an activator of the intrinsic pathway, FXIa, and tPA (tissue plasminogen activator), at the following concentrations: 0.5 pM, 4 μM, 100 pM, and 0.13 μg/mL final test. • b. The mixture is incubated at 37° C. then the calcium ion-based triggering reagent is added to the mixture, 50 μL in 102 mM final reagent (17 mM final test), to initiate formation of the fibrin clot. • c. The change in optical density is read dynamically (every 2 seconds) at a single wavelength, at 540 nm and for a duration of 1986 seconds (33 minutes). • d. The database is composed of all the deltas of the optical density (DOD) at the different measurement times and for each of the method parameters (Tmax; T09D—90% of the max DOD; TL—50% of the max DOD—max DOD is a measure of optical density). • e. […] This database is used as a training database which is trained on at least 70% of the overloaded samples selected randomly, and as a test database for the remaining overloaded samples (30%), then as a validation database for the patient samples.
The classification group is determined using the two DOD (delta optical density) parameters. For the turbidimetric method used, the times are defined within the ranges of [700-900] sec for time t1 and [1100-1400] sec for time t2. Preferably, time t1 was defined at 750 sec and time t2 was defined at 1400 sec. More precisely, the results shown in the Figures were obtained with t1=750 sec and t2=1400 sec. These parameters were selected in accordance with the method for the optimal choice or verification of these parameters, explained in this description. […] The range for time t2 was defined in combination with the results obtained at time t1.
As we did for the implementation of a viscoelastic method, we carried out turbidimetry tests where a hemophilia-A patient from each group is overloaded with different concentrations of therapeutic molecules of interest.
We wanted to test this type of molecule (below and FIG. 24) at concentrations of 0, 3, 15, and 30 μg/mL (Nougier et al. 2020) compared to the reference FVIII treatment (Advate®) at 0, 2, 20, and 100%. […]

[4] = system: inhibitor (antibodies directed against FIX); experiment: Residual titer of FIX after neutralization by the inhibitor in hemophilia-B plasma; assay type: biochemical, human; conditions: 40% Rixubis®, 30 minutes of incubation at 37° C.
Text: For certain hemophilia patients, the presence of inhibitors justifies the use of emicizumab.

Molecule: O=C(OCCO)c1cc(O)c(O)c(O)c1 [GEG, ethylene glycol gallate]
- maximum deviation for parameters DOD t1, DOD t2 and TL compared to the reference method with FXIa ([1]; group 1): −9%
- maximum deviation for parameters DOD t1, DOD t2 and TL compared to the reference method with FXIa ([1]; group 2): +3%
- maximum deviation for parameters DOD t1, DOD t2 and TL compared to the reference method with FXIa ([1]; group 3): +8%

Molecule: NC[C@H]1CC[C@H](C(=O)O)CC1 [tranexamic acid]
- plasma concentration [2]: 2000 ng/mL
- lysis kinetics of a fibrin clot ([3]; TXA (1 μg/mL, FIG. 7) in addition to maintenance therapy / missing factor FVIII, listed as TXA): becomes slower; also recorded: reducing lysis
- classification group after treatment adjustment ([3]; group 3 patients (shortened lysis time), TXA added, FIG. 7): move these patients into group 2
- DOD (delta optical density) at time t2 compared with DOD at time t1 ([3]; plasma concentration of 5 μg/mL of tranexamic acid in the sample): identical

Molecule: FXIII: Factor XIII or Catridecacog (NovoThirteen® NovoNordisk), activated by thrombin, stabilizes the clot
- DOD t2 parameter ([3]; FXIII (NovoThirteen®) mainly in combination with FVIII, patients in the three groups): increases
- resistance to lysis ([3]; FXIII in combination with FVIII, patients from the three groups): increases the resistance to lysis
- change of classification group ([3]; hemophilia-A patient in group 3, 20% FVIII and 170% FXIII:Ag): moves from group 3 to group 2

Molecule: Rixubis®: FIX molecule (Takeda) used as replacement molecule for hemophilia B
- residual titer of FIX after neutralization ([4]; patient B14): 1%
- residual titer of FIX after neutralization ([4]; patient B15): 21%

B1: emicizumab: commercial bispecific antibody mimicking FVIII by forming a complex with activated Factor IX and Factor X (antibody, chains of the INN, looked up, V domains shown)
VH: QVQLVQSGSELKKPGASVKVSCKASGYTFTDNNMDWVRQAPGQGLEWMGDINTRSGGSIYNEEFQDRVIMTVDKSTDTAYMELSSLRSEDTATYHCARRKSYGYYLDEWGEGTLVTVSS
VL: DIQMTQSPSSLSASVGDRVTITCKASRNIERQLAWYQQKPGQAPELLIYQASRKESGVPDRFSGSRYGTDFTLTISSLQPEDIATYYCQQYSDPPLTFGGGTKVEIK
VH2: QVQLVESGGGLVQPGGSLRLSCAASGFTFSYYDIQWVRQAPGKGLEWVSSISPSGQSTYYRREVKGRFTISRDNSKNTLYLQMNSLRAEDTAVYYCARRTGREYGGGWYFDYWGQGTLVTVSS
VL2: DIQMTQSPSSLSASVGDRVTITCKASRNIERQLAWYQQKPGQAPELLIYQASRKESGVPDRFSGSRYGTDFTLTISSLQPEDIATYYCQQYSDPPLTFGGGTKVEIK
- classification of patient in group 2 versus group 3 ([3]; at 3 μg/mL emicizumab): overlap in classification
- change in the group of overloaded hemophiliacs ([3]; emicizumab overload 0, 3, 15, 30 μg/mL): No change
- change to DOD t1 ([3]; emicizumab overload 0, 3, 15, 30 μg/mL, regardless of the patient groups): little change
- DOD t2 ([3]; groups 1 and 2, up to 15 μg/mL of emicizumab): increased
- change in parameters DOD t1 and DOD t2 ([3]; patient in group 3, emicizumab overload): little change in parameters
- resistance to lysis ([3]; patients in groups 1 and 2, emicizumab overload): increasing the resistance to lysis
